Values of other authors as cited in patent US7858592B2, “Interfering RNAs against the promoter region of P53” (The Board of Regents of the University of Texas System, priority 2007, dated 2010).
Counter-ions that a name gives are not always drawn.

How the values were obtained:
[1] = not given; remark: listed apart in the source
[2] = not given; remark: listed apart in the source

O=NN(CCCl)C(=O)NC1CCCCC1 [Lomustine, 1-(2-chloro-ethyl)-3-cyclohexyl-1 nitrosourea]
tissue levels versus plasma levels (15 minutes after intravenous administration): comparable to plasma levels

N[C@H](Cc1ccc(N(CCCl)CCCl)cc1)C(=O)O [medphalan]
activity relative to the L-isomer (certain animal tumors): less active

O.O=P1(N(CCCl)CCCl)NCCCO1 (stereo not drawn) [Cyclophosphamide, 2H-1,3,2-Oxazaphosphorin-2-amine, N,N-bis(2-chloroethyl)tetrahydro-, 2-oxide, monohydrate]
local tolerability ([1]; oral and parental routes): does not cause local vesication, necrosis, phlebitis or even pain

CC[C@@]1(O)C(=O)OCc2c1cc1n(c2=O)Cc2cc3ccccc3nc2-1 [Camptothecin]
solubility in water [2]: poor water-solubility

COc1cccc2c1C(=O)c1c(O)c3c(c(O)c1C2=O)C[C@@](O)(C(=O)CO)C[C@@H]3O[C@H]1C[C@H](N)[C@H](O)[C@H](C)O1 [Doxorubicin, 5,12-Naphthacenedione, (8s-cis)-10-[(3-amino-2,3,6-trideoxy-a-L-lyxo-hexopyranosyl)oxy]-7,8,9,10-tetrahydro-6,8,11-trihydroxy-8-(hydroxyacetyl)-1-methoxy-hydrochloride]
excreted into the urine (in vivo): a few percent

CC[C@]1(O)C[C@H]2CN(CCc3c([nH]c4ccccc34)[C@@](C(=O)OC)(c3cc4c(cc3OC)N(C=O)[C@H]3[C@@](O)(C(=O)OC)[C@H](OC(C)=O)[C@]5(CC)C=CCN6CC[C@]43[C@@H]65)C2)C1 [Vincristine]
toxicity for normal marrow cells and epithelial cells ([1]; in vivo): relatively low toxicity
